Patent publication US8425894B2, “Use of oligomers of lactic acid in the treatment of gynaecological disorders” (priority 2007, dated 2013)

How the values were obtained:
[1] = Comparison of in vitro release from lactic acid and OMLA 30 through a dialysis membrane; format: physicochemical
Method: 200 mg of LA or OMLA was placed in a dialysis bags. The bags were immersed in 50 ml of water (37° C.) and stirred in the same temperature for 48 hours. After 3, 6, 24 and 48 hours the acceptor liquid was removed and replaced with fresh water. The pH was measured at regular intervals. The liquid was titrated with 0.1 or 0.01 M KOH to measure how much LA equivalents are released. Then an excess of KOH was added and after 24 hours the solution was titrated with 0.1 or 0.01 HCl. […] The results are presented in FIG. 4A. pH was measured outside of the dialysis bags each hour between 1 to 10 and periodically up to 48 hours (FIG. 4B).

[2] = Mucoadhesive properties of OMLA formulations (5 graded VAS scale); format: physicochemical; details: 0 = no, 4 = very pronounced mucoadhesive properties, fluid form
Method: Mucoadhesiveness (or bioadhesiveness) is given according to a 5 graded VAS scale, where 0 denotes no mucoadhesive properties and 4 very pronounced mucoadhesive properties.
Chemical and preformulation experiments were carried out in order to determine mucoadhesiveness of OMLA in gel or semisolid forms (see table below). The mucoadhesiveness for the OMLA judged for fluid, gel, patch, and vagitoria. Muco(Bio)adhesiveness is given according to a 5 graded VAS scale, where 0 denotes no mucoadhesive properties and 4 very pronounced mucoadhesive properties.

release from the dialysis bag ([1]; 200 mg in dialysis bag, 50 ml water, 37° C.): immediately
ability to maintain constant acidic pH outside the dialysis bag ([1]; 50 ml water 37° C., replaced after 3, 6, 24, 48 h): not able to maintain acidic pH constant
Mucoadhesiveness, Fluid [2]: 0
SMILES: CC(O)C(=O)O (stereo not drawn) [LA, lactic acid]
